In patent US20120034613A1, “Apparatus and Method for Testing Relationships Between Gene Expression and Physical Appearance of Skin” (NSE Products, Inc., priority 2010, published 2012):

Tested on: EpidermFT™ Skin Model (EFT-400) full thickness skin cultures
Assay: Affymetrix GeneChip HG U133 Plus 2.0 microarray global gene expression, agent-exposed vs untreated skin cultures
Type: cell-based, human
Settings: 24 hr; for Direction / Fold change: Salicin 0.5%
[1] = 210424_s_at GOLGA8A /// GOLGA8B
[2] = 219471_at C13orf18 /// LOC728970

## OCc1ccccc1O[C@@H]1O[C@H](CO)[C@@H](O)[C@H](O)[C@H]1O [Salicin, 2-(Hydroxymethyl)phenyl β-D-glucospyranoside]
0.5% vs untreated, down
  Fold change SPTLC2 (203128_at): 3.78
  Fold change SPTLC2 (225095_at): 3.474
  Fold change ST14 (216905_s_at): 3.604
  Fold change STARD5 (213820_s_at): 3.436
  Fold change STON2 (227461_at): 3.288
  Fold change STOX2 (231969_at): 3.5
  Fold change STYK1 (220030_at): 3.584
  Fold change SYK (207540_s_at): 3.163
  Fold change SYNE2 (202761_s_at): 3.62
  Fold change SYTL1 (227134_at): 3.294
  Fold change TACC2 (211382_s_at): 3.335
  Fold change TGFA (205015_s_at): 3.134
  Fold change TGM3 (206004_at): 3.783
  Fold change THBD (203887_s_at): 3.137
  Fold change TIAM1 (206409_at): 3.792
  Fold change TM7SF3 (217974_at): 3.241
  Fold change TMEM54 (225536_at): 3.354
  Fold change TMEM184A (1558281_a_at): 3.052
  Fold change TPD52L1 (203786_s_at): 3.196
  Fold change TRIM7 (223694_at): 3.302
  Fold change TRIM7 (239694_at): 3.174
  Fold change TRIM14 (203147_s_at): 3.14
  Fold change TRIM14 (203148_s_at): 3.658
  Fold change TRIM25 (224806_at): 3.869
  Fold change TST (209605_at): 3.038
  Fold change UBL3 (201534_s_at): 3.354
  Fold change UGT1A1 /// UGT1A10 /// UGT1A4 /// UGT1A6 /// UGT1A8 /// UGT1A9 (207126_x_at): 3.18
  Fold change UPK1B (210065_s_at): 3.412
  Fold change USP2 (229337_at): 3.391
  Fold change USP6NL (238164_at): 3.19
  Fold change VAMP8 (202546_at): 3.922
  Fold change VWA5A (210102_at): 3.897
  Fold change WNT3 (229103_at): 3.218
  Fold change XG (1554062_at): 3.378
  Fold change ZBTB7C (227782_at): 3.288
  Fold change ZNF91 (206059_at): 3.205
63825_at ABHD2
  Direction: up
  Fold change: 2.157
201467_s_at NQO1
  Direction: up
  Fold change: 2.122
201468_s_at NQO1
  Direction: up
  Fold change: 2.093
202724_s_at FOXO1
  Direction: up
  Fold change: 2.098
202952_s_at ADAM12
  Direction: up
  Fold change: 2.155
203066_at GALNAC4S-6ST
  Direction: up
  Fold change: 2.113
203426_s_at IGFBP5
  Direction: up
  Fold change: 2.075
203518_at LYST
  Direction: up
  Fold change: 2.15
203740_at MPHOSPH6
  Direction: up
  Fold change: 2.138
203853_s_at GAB2
  Direction: up
  Fold change: 2.114
204115_at GNG11
  Direction: up
  Fold change: 2.108
204396_s_at GRK5
  Direction: up
  Fold change: 2.087
204420_at FOSL1
  Direction: up
  Fold change: 2.141
204456_s_at GAS1
  Direction: up
  Fold change: 2.089
204742_s_at PDS5B
  Direction: up
  Fold change: 2.139
204790_at SMAD7
  Direction: up
  Fold change: 2.151
205110_s_at FGF13
  Direction: up
  Fold change: 2.158
208415_x_at ING1
  Direction: up
  Fold change: 2.15
209436_at SPON1
  Direction: up
  Fold change: 2.145
210145_at PLA2G4A
  Direction: up
  Fold change: 2.072
210355_at PTHLH
  Direction: up
  Fold change: 2.144
[1]
  Direction: up
  Fold change: 2.127
210519_s_at NQO1
  Direction: up
  Fold change: 2.116
210665_at TFPI
  Direction: up
  Fold change: 2.091
210841_s_at NRP2
  Direction: up
  Fold change: 2.133
211725_s_at BID
  Direction: up
  Fold change: 2.092
211981_at COL4A1
  Direction: up
  Fold change: 2.121
212298_at NRP1
  Direction: up
  Fold change: 2.073
212554_at CAP2
  Direction: up
  Fold change: 2.082
213032_at NFIB
  Direction: up
  Fold change: 2.146
213033_s_at NFIB
  Direction: up
  Fold change: 2.125
213093_at PRKCA
  Direction: up
  Fold change: 2.125
213790_at ADAM12
  Direction: up
  Fold change: 2.085
213994_s_at SPON1
  Direction: up
  Fold change: 2.086
214014_at CDC42EP2
  Direction: up
  Fold change: 2.119
214211_at FTH1
  Direction: up
  Fold change: 2.154
214913_at ADAMTS3
  Direction: up
  Fold change: 2.145
215012_at ZNF451
  Direction: up
  Fold change: 2.114
215785_s_at CYFIP2
  Direction: up
  Fold change: 2.107
215997_s_at CUL4B
  Direction: up
  Fold change: 2.138
217202_s_at GLUL
  Direction: up
  Fold change: 2.106
217739_s_at NAMPT
  Direction: up
  Fold change: 2.155
218574_s_at LMCD1
  Direction: up
  Fold change: 2.123
218665_at FZD4
  Direction: up
  Fold change: 2.078
218810_at ZC3H12A
  Direction: up
  Fold change: 2.117
219054_at C5orf23
  Direction: up
  Fold change: 2.096
219283_at C1GALT1C1
  Direction: up
  Fold change: 2.107
219284_at HSPBAP1
  Direction: up
  Fold change: 2.08
[2]
  Direction: up
  Fold change: 2.12
219558_at ATP13A3
  Direction: up
  Fold change: 2.138
219774_at CCDC93
  Direction: up
  Fold change: 2.13
219790_s_at NPR3
  Direction: up
  Fold change: 2.115
220253_s_at LRP12
  Direction: up
  Fold change: 2.096
221586_s_at E2F5
  Direction: up
  Fold change: 2.079
221881_s_at CLIC4
  Direction: up
  Fold change: 2.109
223758_s_at GTF2H2
  Direction: up
  Fold change: 2.138
224461_s_at AIFM2
  Direction: up
  Fold change: 2.132
224583_at COTL1
  Direction: up
  Fold change: 2.077
224978_s_at USP36
  Direction: up
  Fold change: 2.122
225034_at ST3GAL1
  Direction: up
  Fold change: 2.099
225185_at MRAS
  Direction: up
  Fold change: 2.155
225212_at SLC25A25
  Direction: up
  Fold change: 2.108
225436_at FAM108C1
  Direction: up
  Fold change: 2.142
225590_at SH3RF1
  Direction: up
  Fold change: 2.104
225871_at STEAP2
  Direction: up
  Fold change: 2.153
226136_at GLIPR1
  Direction: up
  Fold change: 2.104
226142_at GLIPR1
  Direction: up
  Fold change: 2.129
226160_at H6PD
  Direction: up
  Fold change: 2.103
226731_at PELO
  Direction: up
  Fold change: 2.098
226800_at EFCAB7
  Direction: up
  Fold change: 2.156
228082_at ASAM
  Direction: up
  Fold change: 2.108
228702_at FLJ43663
  Direction: up
  Fold change: 2.156
228949_at GPR177
  Direction: up
  Fold change: 2.105
228950_s_at GPR177
  Direction: up
  Fold change: 2.126
229194_at PCGF5
  Direction: up
  Fold change: 2.107
229306_at FAM148B
  Direction: up
  Fold change: 2.129
229414_at PITPNC1
  Direction: up
  Fold change: 2.108
229553_at PGM2L1
  Direction: up
  Fold change: 2.113
229623_at FLJ12993
  Direction: up
  Fold change: 2.132
230291_s_at NFIB
  Direction: up
  Fold change: 2.15
232004_at HNRNPR
  Direction: up
  Fold change: 2.126
232267_at GPR133
  Direction: up
  Fold change: 2.135
232311_at B2M
  Direction: up
  Fold change: 2.121
235019_at CPM
  Direction: up
  Fold change: 2.117
235182_at ISM1
  Direction: up
  Fold change: 2.138
235311_at FKBP14
  Direction: up
  Fold change: 2.153
236154_at QKI
  Direction: up
  Fold change: 2.103
238893_at LOC338758
  Direction: up
  Fold change: 2.075
239108_at FAR2
  Direction: up
  Fold change: 2.081
239415_at MAP9
  Direction: up
  Fold change: 2.126
240395_at LOC100128727
  Direction: up
  Fold change: 2.078
241986_at BMPER
  Direction: up
  Fold change: 2.136
243631_at LOC727815
  Direction: up
  Fold change: 2.087
243797_at STK17B
  Direction: up
  Fold change: 2.09
244752_at ZNF438
  Direction: up
  Fold change: 2.083
1553962_s_at RHOB
  Direction: up
  Fold change: 2.094
